“Also recorded” adds a separate entry of the source.
Columns and labels:
zebrafish embryos = test: HSPC marker expression in chemically treated embryos (whole mount in situ hybridization); format: in vivo
Description: (§1) Zebrafish embryos were treated with the following chemical modulators in E3 fish media: 100 uM L-NAME (Fisher Scientific), 50 uM Digitoxigenin (Sigma), 25-50 uM Yoda1 (Cayman Chemical), 1 uM Nanaomycin (Nana; Fisher Scientific), 100 uM Gadolinium chloride (GdCl3; Sigma), 5-10 uM 4α-phorbol 12, 13-didecanaote (4Apdd; Sigma), or GSK205 (10 uM).
Whole mount in situ hybridizations was performed as previously described.

E11.5 AGM cells = test: Hematopoietic colony formation unit (CFU) and FACS assays on E11.5 AGM cells; format: cell-based, mouse; conditions: for effect on cyclic strain-induced endothelial-to-HSC transition / hematopoietic progenitor formation: in the presence of cyclic strain (stretch)
Description: Pulsating blood vessels like conditions were stimulated in vitro using FLEXCELL FX-4000 cell stretching bioreactor machine. To analyze roles of pharmacological targets in regulating the endothelial-to-HSC transition, mouse embryo-derived AGM or whole mouse embryo were exposed ex vivo with biomechanical stretching, chemicals, or drugs. Next, hematopoietic colony formation assays were performed by incubating mouse AGM-derived cells in StemCell M3434 media for seven days. Serial transplantation of AGM-derived HSCs in lethally irradiated SJL mice were performed. The stem cell frequency upon biomechanical stretching was analyzed using a limiting dilution assay. To characterize properties of AGM-HSC-derived blood cells in primary transplants, percentage chimerism and reconstitution was measured using FACS, globin transcripts were analyzed using quantitative reverse transcriptase-PCR, myeloperoxidase amount was measured using PICOKINE ELISA kit, TCR-β rearrangement was analyzed using PCR for TCR-β locus, pre-immune IG detection was analyzed using Thermo-Fisher Mouse Ig Isotyping kit, and delayed-type hypersensitivity was analyzed by injecting sheep RBC (Rockland Immunochemicals) in the footpad of pre-sensitized mice.
E11.5 AGM were harvested from C57BL6/J Cd45.2 mouse embryos, and a single cell suspension of a three-embryo equivalent of cells was seeded on each well of a BioFlex six-well culture plate (FlexCell). We cultured cells overnight with the application of cyclic strain (Flexcell® FX4000™ Tension System) and/or treatment with chemical modulators (25-50 μM Yoda1, 1 μM Nanaomycin, 100 μM GdCl3, 1 uM GsMTx4, 5-20 μM 4αPDD, 10 uM GSK205). Next, harvested cells were used to perform transplant, fluorescence-activated cell sorting (FACS) analysis, and colony-forming unit (CFU) assays.
E11.5 mouse embryos were harvested from the uterus of the time-mated pregnant female, into sterile glass vials containing FBS, 1 mM glucose, 1% Penicillin-Streptomycin, and/or the selected chemical modulator (25-50 μM Yoda1, 1 μM Nanaomycin, 5-20 μM 4αPDD, or 10 uM GSK205). We placed glass vials in the ex vivo incubator (BTC Engineering, Cambridge, UK) consisting of a roller apparatus (rotating ˜30 rpm), constant gas supply (21% O2, 5% CO2, balance N2) and constant temperature at 37° C. After 24 hours, AGM were harvested to analyze the formation of hematopoietic cells by FACS and CFU assays.
For CFU assays, cells from AGM explant or ex vivo were plated in METHOCULT GF M3434 media (StemCell Technologies). Seven days after seeding, we analyzed their capacity to make granulocyte, erythroid, macrophage, megakaryocyte (GEMM), granulocyte macrophage (GM), granulocyte (G), macrophage (M), and erythroid (E) colonies.
AGM cells from explants and ex vivo were stained with Sca1-Pacific-Blue (E13-161.7, Biolegend) and Flk1-APC-Cy7 (Avas 12α1, BD). Blood from transplanted mice was stained with the following antibody cocktail: Cd45.2-Pacific-Blue (104, Biolegend), Cd45.1-FITC (A20, Biolegend), Cd3-PE (145-2C11, Biolegend), Cd8-PE (53-6.7, Biolegend), Mac1-APC (M1/70, Biolegend), Gr1-APC (108412, Biolegend), Cd19-APC-CY7 (6D5, Biolegend), B220-APC-CY7 (RA3-6B2, Biolegend).

[1] = tested on: cd41:eGFP+ HSCs emerging from flk1:mCherry+ endothelial cells; test: Time-lapse confocal imaging of cd41:eGFP+ HSCs emerging from flk1:mCherry+ endothelial cells in transgenic embryos; format: in vivo, zebrafish
Description: Mice were purchased Cd45.2 (C57BL6/J) and Cd45.1 (SJL) from The Jackson Laboratory and zebrafish morpholinos from GeneTools. Microangiography was performed by injecting fluorescent-labeled dextran dye in the atrium of zebrafish heart and its passage was recorded using live imaging. Immunostaining of zebrafish heart and mouse AGM were analyzed using an inverted fluorescent microscope. Cardiac tamponade, heart rate, and pulse frequency were analyzed in zebrafish embryos using bright field imaging or time-lapse confocal microscopy. The movement of red blood cells in blood vessels was analyzed as well as the endothelial-to-HSC transition in zebrafish transgenic embryos using time-lapse confocal imaging.
as §1
cd41: eGFP were crossed with flk1:mCherry zebrafish and flk1:mCherry with lcr:eGFP zebrafish and injected morpholino in their transgenic embryos. Transgenic embryos were mounted in low-melting-point agarose and a spinning-disk confocal microscope was used to perform time-lapse confocal imaging of cd41:eGFP^+ HSCs emerging from flk1^+ endothelium from 30 to 42 hpf. The relative movement of lcr:eGFP^+ red blood cells was analyzed in the context of flk1:mCherry^+ endothelium. We performed image analysis using IMARIS (Bitplane) software.

| Molecule | HSPC marker expression / HSPC formation (zebrafish embryos; control embryos) | effect on cyclic strain-induced endothelial-to-HSC transition / hematopoietic progenitor formation (E11.5 AGM cells) | HSPC marker expression / HSPC formation (zebrafish embryos; cdh5-MO embryos) | effect on Piezo1 activation (Yoda1)-mediated increase in HSC formation ([1]; embryos concurrently treated with or without Yoda1, also whole mount in situ hybridization) | specificity for Dnmt3b over Dnmt3a ([1]; transgenic embryos 26-42 hpf) | phenotype of hematopoietic cells after treatment (E11.5 AGM cells; E11.5 AGM cells) | effect on Piezo1 activation (Yoda1)-induced endothelial-to-HSC transition (E11.5 AGM cells; in the presence of Yoda1) |
| --- | --- | --- | --- | --- | --- | --- | --- |
| [Cl][Gd]([Cl])[Cl] [GdCl3, Gadolinium chloride] | attenuated HSPC expression in zebrafish embryos to the level of sih-MO embryos | attenuated | – | – | – | – | – |
| COC(=O)[C@@H](N)CCCNC(=N)N[N+](=O)[O-] [L-NAME] | attenuates HSPC formation | – | produce HSCs; also recorded: does not impact HSPC formation | – | – | – | – |
| CC1OC(CC(=O)O)CC2=C1C(=O)c1c(O)cccc1C2=O (stereo not drawn) [Nanaomycin] | attenuated HSPC marker expression | attenuates the endothelial-to-HSC transition | attenuated HSPC marker expression | attenuated the Piezo1 activation-mediated increase in HSC formation | specificity of Nanaomycin for Dnmt3b over Dnmt3a | reverts hematopoietic cells into phenotypic endothelial cells | attenuates the endothelial-to-HSC transition |
| GsMtX4 | – | attenuates the inductive impact of cyclic strain on the endothelial-to-HSC transition | – | – | – | – | – |

From US20230212517A1, “METHODS FOR GENERATING HEMATOPOIETIC STEM CELLS” (The Brigham and Women's Hospital, Inc., priority 2018, published 2023)
